Entries after “also recorded” stand apart in the source; their conditions may differ.
Assays:
[1] = system: cellulase from Trichoderma longibrachiatum; test: Cellulase assay: release of C1PNP/PNP (absorbance 400 nm) from substrates, with and without β-glucosidase; assay type: biochemical; settings: 40° C., pH 4.5; for sensitivity of the assay (rate of release of C1PNP) in the presence vs absence of β-glucosidase: absorbance 400 nm vs. time, FIGS. 3a-3b
Text: FIGS. 3a-3b are graphs of absorbance (400 nm) vs. time, for the action of a cellulase from Trichoderma longibrachiatum on. […] In contrast, for BC1PNP-G3 (3b) the endo-acting Trichoderma cellulase cleaves the glycosidic bond either between two glucosyl units or between the bond between the terminal glucosyl unit and C1PNP releasing an end-blocked cello-oligosaccharide and a non-blocked C1PNP-cello-oligosaccharide fragment, or free C1PNP. The β-glucosidase in the assay mixture immediately hydrolyses the non-blocked C1PNP-cello-oligosaccharide released, giving D-glucose and free C1PNP.
FIG. 4 is a graph of absorbance (400 nm) vs. time, for the action of a cellulase from Trichoderma longibrachiatum (1500 milli-International Units on CMC-4M per assay) on p-nitrophenyl cellobiose (PNP-G2), 2-chloro-4-nitrophenyl cellobiose (C1PNP-G2), end-blocked p-nitrophenyl cellobiose (BPNP-G2) and end-blocked 2-chloro-4-nitrophenyl cellobiose (BC1PNP-G2) in the absence of added β-glucosidase at 40° C. and pH 4.5 using an assay of the invention (embodiment Two).
(§1) Prepare substrate solution by dissolving end-blocked p-nitrophenyl cello-oligosaccharides or end-blocked 2-Cl-4-nitrophenyl cello-oligosaccharide (DP 2, 3 or 4) in 2 mL of dimethyl sulphoxide to obtain a concentration of 12.5 mM. Cool this solution in ice and add 3 mL of 170 mM potassium chloride solution with mixing, to give a final substrate concentration of 5 mM. Prepare this solution fresh before use, or warm to 40° C. before use to ensure complete dissolution.
Add an aliquot (0.1 mL) of the substrate solution to the bottom of a 16×120 mm glass test tube, followed by 0.05 mL of pure β-glucosidase (Second embodiment only). Incubate tubes for 2 min at the selected reaction temperature and initiate the reaction by adding 0.1 mL of sample solution containing cellulase in 200 mM buffer solution of the desired pH (usually in the range of 4.5 to 8.0). […] Mix the tube contents and measure the absorbance at 400 nm against a reaction blank.

[2] = system: cellulase from Aspergillus niger; test: Cellulase assay: release of C1PNP (absorbance 400 nm) from end-blocked substrates, with and without β-glucosidase; assay type: biochemical; settings: 40° C., pH 4.5; absorbance 400 nm vs. time; FIGS. 2a-2b
Protocol: FIGS. 2a-2b are graphs of absorbance (400 nm) vs. time, for the action of a cellulase from Aspergillus niger on. […] FIG. 2b shows_end-blocked 2-chloro-4-nitrophenyl cellotriose (BC1PNP-G3) (700 milli-International Units per assay) at 40° C. and pH 4.5 in the presence and the absence of β-glucosidase using an assay of the invention. […] Note: One International Unit of enzyme activity as defined is the amount of enzyme required to release one micromole of reducing sugar equivalents per minute from carboxymethyl cellulose 4M (CMC-4M) (10 mg/mL) in 100 mM sodium acetate buffer (pH 4.5).
as §1
Add an aliquot (0.1 mL) of the substrate solution to the bottom of a 16×120 mm glass test tube, followed by 0.05 mL of pure β-glucosidase (Second embodiment only). […] Mix the tube contents and measure the absorbance at 400 nm against a reaction blank.

| Substance | sensitivity of the assay (rate of release of C1PNP) in the presence vs absence of β-glucosidase [1] | sensitivity of the assay (rate of release of C1PNP) in the presence vs absence of β-glucosidase [2] | rate of hydrolysis by Trichoderma cellulase (comparison of substrates) ([1]; absence of added β-glucosidase, 1500 milli-International Units per assay, FIG. 4) |
| --- | --- | --- | --- |
| end-blocked 2-chloro-4-nitrophenyl cellobiose [BC1PNP-G2] | same sensitivity of the assay; also recorded: the same result is seen | same sensitivity of the assay; also recorded: no increase in the colour formed |  |
| end-blocked 2-chloro-4-nitrophenyl cellotriose [BC1PNP-G3] | greater sensitivity of the assay in the presence of added β-glucosidase | same sensitivity of the assay; also recorded: no increase in the colour formed |  |
| end-blocked p-nitrophenyl cellobiose [BPNP-G2] |  |  | slower rate than BC1PNP-G2 |
